Experimental data taken from publication PMC3146814, “The crystal structure of alanine racemase from Streptococcus pneumoniae, a target for structure-based drug design” (BMC Microbiology, 2011).

T1: alanine racemase from S. pneumoniae (AlrSP) (Streptococcus pneumoniae, UniProt P0A2W8)
T1 construct: gene alr; untagged as far as told, gene in pET17, E. coli BL21(DE3) pLysS; monomer residues 1-367; homodimer; Lys129 carbamylated
T1 sequence (P0A2W8 1-367): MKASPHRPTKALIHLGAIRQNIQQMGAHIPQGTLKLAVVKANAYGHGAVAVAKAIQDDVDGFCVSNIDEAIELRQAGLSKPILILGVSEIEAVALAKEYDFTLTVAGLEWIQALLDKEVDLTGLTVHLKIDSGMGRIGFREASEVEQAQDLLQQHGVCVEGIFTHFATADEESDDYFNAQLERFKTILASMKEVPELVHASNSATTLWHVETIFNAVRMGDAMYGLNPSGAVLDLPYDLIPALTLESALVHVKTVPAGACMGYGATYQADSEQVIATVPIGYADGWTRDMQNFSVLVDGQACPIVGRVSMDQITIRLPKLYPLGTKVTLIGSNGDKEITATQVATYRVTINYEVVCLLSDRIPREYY

B1: alanine racemase from Streptococcus pneumoniae (enzyme, UniProt P0A2W8 1-367, looked up)
chain: T1 sequence (P0A2W8 1-367)
modifications: PLP covalently bound to Lys40 by an internal aldimine bond (N'-pyridoxyl-lysine-5'-monophosphate, LLP); carbamylated Lys129
notes: alanine racemase (E.C. 5.1.1.1) of Streptococcus pneumoniae; the gene was cloned into pET17; the model holds residues 1-367 of each monomer (734 residues, 100%): alpha/beta barrel domain 1-238 and beta-strand domain 239-367; no tag is named; also called AlrSP; Alr

How the values were obtained:
[1] = biological target: T1, alanine racemase from S. pneumoniae (AlrSP); assay: X-ray crystallography, […] Å; assay type: binding; conditions: covalent; internal aldimine with Lys40 (LLP residue); active site; crystals grown at pH 7.2, 4 °C
[2] = biological target: the molecule itself; assay: crystal structure; sitting drop vapor diffusion at 4°C, 1.2 M Na citrate, 0.1 M MES pH 7.2, 10% glycerol, protein 23 mg/ml; space group P3(1)21, two monomers in the asymmetric unit; 2.0 Å

Molecule	X-ray crystallography, 2.0 Å [1]	stoichiometry N [2]
Cc1ncc(COP(=O)(O)O)c(C=O)c1O [pyridoxal phosphate (PLP)]	The pyridoxal phosphate (PLP) cofactor is connected to Lys40 through an internal aldimine bond	
B1		2
